We go through one compound from patent US6552008B1, “Thrombopoietin mimetics” (SmithKline Beecham Corporation, priority 1999, dated 2003).

This assay addresses T1, TPO receptor (Homo sapiens, UniProt P40238).
T1 construct: expressed in transfected cells; host or cells: murine BaF3 cells (TPO-responsive line)
T1 sequence (P40238 26-635): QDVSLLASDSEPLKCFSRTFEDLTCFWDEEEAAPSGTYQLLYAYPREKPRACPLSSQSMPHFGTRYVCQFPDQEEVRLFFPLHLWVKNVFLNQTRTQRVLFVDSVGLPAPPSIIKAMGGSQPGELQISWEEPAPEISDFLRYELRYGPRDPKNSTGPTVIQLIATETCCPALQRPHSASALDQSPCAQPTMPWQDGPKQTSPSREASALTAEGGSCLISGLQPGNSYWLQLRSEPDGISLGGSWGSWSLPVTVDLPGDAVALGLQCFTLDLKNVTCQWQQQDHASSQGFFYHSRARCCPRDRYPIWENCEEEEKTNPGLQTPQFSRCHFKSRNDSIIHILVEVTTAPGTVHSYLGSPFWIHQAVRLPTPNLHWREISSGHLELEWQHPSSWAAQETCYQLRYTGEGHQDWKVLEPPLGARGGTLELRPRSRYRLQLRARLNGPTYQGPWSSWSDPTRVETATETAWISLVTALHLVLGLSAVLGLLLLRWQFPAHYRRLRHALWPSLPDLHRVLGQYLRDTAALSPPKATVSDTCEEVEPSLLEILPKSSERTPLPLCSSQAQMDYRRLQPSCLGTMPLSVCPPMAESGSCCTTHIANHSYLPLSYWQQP
Kind of assay: Luciferase assay in TPO-responsive BaF3 cell line. It is filed as cell-based, murine. As for the experimental part: Compounds of the present invention were tested for potency as mimetics of the TPO receptor in a Luciferase assay such as described in Lamb, et al., Nucleic Acids Research 23: 3283-3289 (1995) and Seidel, et al., Proc. Natl. Acad. Sci., USA 92: 3041-3045 (1995) by substituting a TPO-responsive BaF3 cell line (Vigon et al. Proc. Natl. Acad. Sci. USA 1992, 89, 5640-5644) for the HepG2 cells utilized therein. The murine BaF3 cells express TPO receptors and closely match the pattern of STAT (signal transducers and activators of transcription) activation observed in primary murine and human bone marrow cells.

For `CC1=NN(c2ccc(C(=O)O)cc2)C(=O)C1N=NC1C(=O)N(c2ccc(C)c(C)c2)N=C1C` (centres unmarked) [Example 1, 4-[1-(3,4-Dimethylphenyl)-3-methyl-4-(3-methyl-5-oxo-2-pyrazolin-4-ylazo)-5-oxo-2-pyrazolin-1-yl]benzoic Acid], under “TPO-responsive BaF3 cells”, the EC50 is 720 nM. The “activity, % TPO” value (relative to TPO) was 56 % TPO.

The EC50 is the concentration giving half of the maximal effect. Low readings indicate an effect from little substance, high ones a need for much substance.
